The record followed here is the supplement of paper PMC11208160.

The data set can be described thus: recombinant UMI read abundance after kanamycin selection (control-corrected) (log10(CPM+1)); higher = more efficient recombination; extreme values may be limits of the assay; sequences stand for … in AGTGCAGAGAAAATCGGCCAGTTTTCTCTGCCTGCAGTCCGCATGCCGTGGGACCCCTTGGGTTCTAACCTGTTGCCTAGATTTATGCAGCGGACTGCCTTTCTCCCAAAGTGATAAACCGG…AGGTTGGTTTCACT; site = the 11-nt donor. In outline:
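In Escherichia coli, a pool of donor and donor-binding-loop pairs, each with a 12-nt UMI, was tested for the IS621 bridge recombinase. Plating was on IPTG (0.07 mM) plus kanamycin, or without selection, in two replicates. Recombinant UMIs were amplified by PCR across the donor–target junction and sequenced, and counts were reported as log10(CPM+1) after averaging and control-derived scaling.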
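Note: IS621 bridge recombinase in Escherichia coli cells against a fixed T5 target plasmid.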

For “CCCACCGCATGGACCGGTTTTCCCGGTAATCCGTATTTGCG (site TCCACCGCTCG)”, the “recombinant UMI read abundance (log10)” value stood at 0.00493.
Under “CCCACGCCATGGACCGGTTTTCCCGGTAATCCGTATTTGTA (site ACCACGCCTTA)” stands 0.00406; under “CCCACGCCATGGACCGGTTTTCCCGGTAATCCGTATTTGTA (site CCCACGCCTTA)”, 0.00594; under “CCCACGCCATGGACCGGTTTTCCCGGTAATCCGTATTTGTA (site GCCACGCCTTA)”, 0.00718.
Regarding “CCCACGCCATGGACCGGTTTTCCCGGTAATCCGTATTTGTA (site TCCACGCCTTA)”, the “recombinant UMI read abundance (log10)” value is 0.0141.
For the sequence “CCCAGATCATGGACCGGTTTTCCCGGTAATCCGTATTTGTC (site CCCAAATCTGA)”, the “recombinant UMI read abundance (log10)” value was determined as 0.
For the sequence “CCCAGATCATGGACCGGTTTTCCCGGTAATCCGTATTTGTC (site CCCACATCTGA)”, the “recombinant UMI read abundance (log10)” value came out at 0.
In the case of “CCCAGATCATGGACCGGTTTTCCCGGTAATCCGTATTTGTC (site CCCAGATCTGA)” it was 0; in that of “CCCAGATCATGGACCGGTTTTCCCGGTAATCCGTATTTGTC (site CCCATATCTGA)”, 0; in that of “CCCATAACATGGACCGGTTTTCCCGGTAATCCGTATTTGTC (site CCCATAACTGA)”, 0.
Turning to “CCCATAACATGGACCGGTTTTCCCGGTAATCCGTATTTGTC (site CCCATACCTGA)”, the “recombinant UMI read abundance (log10)” value was 0.
In the case of “CCCATAACATGGACCGGTTTTCCCGGTAATCCGTATTTGTC (site CCCATAGCTGA)” it was 0; in that of “CCCATAACATGGACCGGTTTTCCCGGTAATCCGTATTTGTC (site CCCATATCTGA)”, 0.
In the case of “CCCATACCATGGACCGGTTTTCCCGGTAATCCGTATTTGTC (site CCCATAACTGA)” it was 0.
In the case of “CCCATACCATGGACCGGTTTTCCCGGTAATCCGTATTTGTC (site CCCATACCTGA)”, the “recombinant UMI read abundance (log10)” value amounted to 0.
Regarding “CCCATACCATGGACCGGTTTTCCCGGTAATCCGTATTTGTC (site CCCATAGCTGA)”, the “recombinant UMI read abundance (log10)” value is 0.
Consider “CCCATACCATGGACCGGTTTTCCCGGTAATCCGTATTTGTC (site CCCATATCTGA)”, for which the “recombinant UMI read abundance (log10)” value was 0.
For “CCCATATCATGGACCGGTTTTCCCGGTAATCCGTATTTGAC (site CCCATATCTGA)”, the “recombinant UMI read abundance (log10)” value was 0.
As for “CCCATATCATGGACCGGTTTTCCCGGTAATCCGTATTTGAC (site CCCATATCTGC)”, the “recombinant UMI read abundance (log10)” value was 0.
In the case of “CCCATATCATGGACCGGTTTTCCCGGTAATCCGTATTTGAC (site CCCATATCTGG)”, the “recombinant UMI read abundance (log10)” value was determined as 0.
In the case of “CCCATATCATGGACCGGTTTTCCCGGTAATCCGTATTTGAC (site CCCATATCTGT)”, the “recombinant UMI read abundance (log10)” value stood at 0.446.
“CCCATCTCATGGACCGGTTTTCCCGGTAATCCGTATTTGTA (site CCCATCTCTTA)”: the “recombinant UMI read abundance (log10)” value worked out at 1.97.
For “CCCCACACATGGACCGGTTTTCCCGGTAATCCGTATTTGTC (site CCCCACACTAA)”, the “recombinant UMI read abundance (log10)” value turned out to be 0.316.
In the case of “CCCCACACATGGACCGGTTTTCCCGGTAATCCGTATTTGTC (site CCCCACACTCA)”, the “recombinant UMI read abundance (log10)” value turned out to be 0.235.
For the sequence “CCCCACACATGGACCGGTTTTCCCGGTAATCCGTATTTGTC (site CCCCACACTGA)”, the “recombinant UMI read abundance (log10)” value stood at 2.39.
For the sequence “CCCCACACATGGACCGGTTTTCCCGGTAATCCGTATTTGTC (site CCCCACACTTA)”, the “recombinant UMI read abundance (log10)” value amounted to 0.335.
As to “CCCCACACATGGACCGGTTTTCCCGGTAATCCGTATTTGTT (site CCCCACACTAA)”, the “recombinant UMI read abundance (log10)” value amounted to 0.634.
In the case of “CCCCACACATGGACCGGTTTTCCCGGTAATCCGTATTTGTT (site CCCCACACTCA)” it was 0.35.
As to “CCCCACACATGGACCGGTTTTCCCGGTAATCCGTATTTGTT (site CCCCACACTGA)”, the “recombinant UMI read abundance (log10)” value was 0.246.
For the sequence “CCCCACACATGGACCGGTTTTCCCGGTAATCCGTATTTGTT (site CCCCACACTTA)”, the “recombinant UMI read abundance (log10)” value came to 0.396.
Under “CCCCGAGCATGGACCGGTTTTCCCGGTAATCCGTATTTGCA (site CCCCGAGCTTG)” stands 0.798.
Consider “CCCCGCACATGGACCGGTTTTCCCGGTAATCCGTATTTGGA (site CCCCGCACTTC)”, for which the “recombinant UMI read abundance (log10)” value stood at 0.0136.
In the case of “CCCCTATCATGGACCGGTTTTCCCGGTAATCCGTATTTGTC (site CCCATATCTGA)” it was 0; in that of “CCCCTATCATGGACCGGTTTTCCCGGTAATCCGTATTTGTC (site CCCCTATCTGA)”, 1.82.
Take “CCCCTATCATGGACCGGTTTTCCCGGTAATCCGTATTTGTC (site CCCGTATCTGA)”: the “recombinant UMI read abundance (log10)” value stood at 0.
Regarding “CCCCTATCATGGACCGGTTTTCCCGGTAATCCGTATTTGTC (site CCCTTATCTGA)”, the “recombinant UMI read abundance (log10)” value is 0.
In the case of “CCCGACTCATGGACCGGTTTTCCCGGTAATCCGTATTTGAA (site CCCGACTCTTT)”, the “recombinant UMI read abundance (log10)” value was 1.35.
For “CCCGATCCATGGACCGGTTTTCCCGGTAATCCGTATTTGCA (site CCCGATCCTTG)”, the “recombinant UMI read abundance (log10)” value was 0.
In the case of “CCCGATCCATGGACCGGTTTTCCCGGTAATCCGTATTTGCA (site CCCGCTCCTTG)” it was 0; in that of “CCCGATCCATGGACCGGTTTTCCCGGTAATCCGTATTTGCA (site CCCGGTCCTTG)”, 0.
“CCCGATCCATGGACCGGTTTTCCCGGTAATCCGTATTTGCA (site CCCGTTCCTTG)”: the “recombinant UMI read abundance (log10)” value worked out at 0.
As for “CCCGCTCCATGGACCGGTTTTCCCGGTAATCCGTATTTGCA (site CCCGATCCTTG)”, the “recombinant UMI read abundance (log10)” value was 0.
Turning to “CCCGCTCCATGGACCGGTTTTCCCGGTAATCCGTATTTGCA (site CCCGCTCCTTG)”, the “recombinant UMI read abundance (log10)” value turned out to be 0.
As to “CCCGCTCCATGGACCGGTTTTCCCGGTAATCCGTATTTGCA (site CCCGGTCCTTG)”, the “recombinant UMI read abundance (log10)” value was 0.
For the sequence “CCCGCTCCATGGACCGGTTTTCCCGGTAATCCGTATTTGCA (site CCCGTTCCTTG)”, the “recombinant UMI read abundance (log10)” value was determined as 0.
With “CCCGGACCATGGACCGGTTTTCCCGGTAATCCGTATTTGCA (site CCCGGACCTTG)”, the “recombinant UMI read abundance (log10)” value was 0.
“CCCGGACCATGGACCGGTTTTCCCGGTAATCCGTATTTGCA (site CCCGGCCCTTG)”: the “recombinant UMI read abundance (log10)” value was 0.
As to “CCCGGACCATGGACCGGTTTTCCCGGTAATCCGTATTTGCA (site CCCGGGCCTTG)”, the “recombinant UMI read abundance (log10)” value is 0.
Regarding “CCCGGACCATGGACCGGTTTTCCCGGTAATCCGTATTTGCA (site CCCGGTCCTTG)”, the “recombinant UMI read abundance (log10)” value came to 0.0045.
Turning to “CCCGGTCCATGGACCGGTTTTCCCGGTAATCCGTATTTGCG (site CCCGGTCCTAG)”, the “recombinant UMI read abundance (log10)” value stood at 0.
As to “CCCGGTCCATGGACCGGTTTTCCCGGTAATCCGTATTTGCG (site CCCGGTCCTCG)”, the “recombinant UMI read abundance (log10)” value amounted to 0.
Under “CCCGGTCCATGGACCGGTTTTCCCGGTAATCCGTATTTGCG (site CCCGGTCCTGG)” stands 0; under “CCCGGTCCATGGACCGGTTTTCCCGGTAATCCGTATTTGCG (site CCCGGTCCTTG)”, 0; under “CCCGGTCCATGGACCGGTTTTCCCGGTAATCCGTATTTGGA (site CCCGGTCCTTA)”, 0.00376.
With “CCCGGTCCATGGACCGGTTTTCCCGGTAATCCGTATTTGGA (site CCCGGTCCTTC)”, the “recombinant UMI read abundance (log10)” value stood at 0.0256.
In the case of “CCCGGTCCATGGACCGGTTTTCCCGGTAATCCGTATTTGGA (site CCCGGTCCTTG)” it was 0; in that of “CCCGGTCCATGGACCGGTTTTCCCGGTAATCCGTATTTGGA (site CCCGGTCCTTT)”, 0.0436.
Turning to “CCCGGTTCATGGACCGGTTTTCCCGGTAATCCGTATTTGCT (site CCCGGTTCTAG)”, the “recombinant UMI read abundance (log10)” value amounted to 0.
Regarding “CCCTATCCATGGACCGGTTTTCCCGGTAATCCGTATTTGCC (site CCCTAACCTGG)”, the “recombinant UMI read abundance (log10)” value worked out at 0.
On to “CCCTATCCATGGACCGGTTTTCCCGGTAATCCGTATTTGCC (site CCCTACCCTGG)”, for which the “recombinant UMI read abundance (log10)” value came out at 0.
Consider “CCCTATCCATGGACCGGTTTTCCCGGTAATCCGTATTTGCC (site CCCTAGCCTGG)”, for which the “recombinant UMI read abundance (log10)” value turned out to be 0.
Regarding “CCCTATCCATGGACCGGTTTTCCCGGTAATCCGTATTTGCC (site CCCTATCCTGG)”, the “recombinant UMI read abundance (log10)” value was found to be 0.417.
Regarding “CCCTGCTCATGGACCGGTTTTCCCGGTAATCCGTATTTGGG (site CCCTACTCTCC)”, the “recombinant UMI read abundance (log10)” value was 0.174.
In the case of “CCCTGCTCATGGACCGGTTTTCCCGGTAATCCGTATTTGGG (site CCCTCCTCTCC)” it was 0.027.
As to “CCCTGCTCATGGACCGGTTTTCCCGGTAATCCGTATTTGGG (site CCCTGCTCTCC)”, the “recombinant UMI read abundance (log10)” value worked out at 0.409.
As for “CCCTGCTCATGGACCGGTTTTCCCGGTAATCCGTATTTGGG (site CCCTTCTCTCC)”, the “recombinant UMI read abundance (log10)” value was 0.018.
Under “CCCTGGCCATGGACCGGTTTTCCCGGTAATCCGTATTTGCC (site CCCTAGCCTGG)” stands 0.
In the case of “CCCTGGCCATGGACCGGTTTTCCCGGTAATCCGTATTTGCC (site CCCTCGCCTGG)”, the “recombinant UMI read abundance (log10)” value is 0.
